What was measured:
ADRA2A = target: T1, ADRA2A (Homo sapiens, UniProt P08913); experiment: SAFETYScan GPCR cAMP, Antagonist; type: cell-based
T1 construct: expressed in transfected cells
T1 sequence (P08913 1-465): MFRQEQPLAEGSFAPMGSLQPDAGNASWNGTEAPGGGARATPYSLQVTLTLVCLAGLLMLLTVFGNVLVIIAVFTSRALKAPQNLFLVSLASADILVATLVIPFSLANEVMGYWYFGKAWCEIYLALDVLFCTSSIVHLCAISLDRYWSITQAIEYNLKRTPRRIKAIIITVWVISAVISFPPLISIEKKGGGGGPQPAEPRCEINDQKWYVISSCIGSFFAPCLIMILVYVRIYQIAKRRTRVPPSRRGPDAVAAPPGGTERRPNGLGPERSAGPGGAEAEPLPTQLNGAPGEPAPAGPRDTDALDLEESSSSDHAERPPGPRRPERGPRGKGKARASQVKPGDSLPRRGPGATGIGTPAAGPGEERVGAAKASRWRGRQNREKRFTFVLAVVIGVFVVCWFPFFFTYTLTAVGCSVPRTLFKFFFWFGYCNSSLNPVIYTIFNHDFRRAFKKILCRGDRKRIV
From the text: (§1) Supplement jm1c02175_si_002.xlsx, sheet "SAFETYScan" | column: RC50 (uM); Max Response

ADRB1 = target: T2, ADRB1 (Homo sapiens, UniProt P08588); experiment: SAFETYScan GPCR cAMP, Antagonist; type: cell-based
T2 construct: expressed in transfected cells
T2 sequence (P08588 whole entry): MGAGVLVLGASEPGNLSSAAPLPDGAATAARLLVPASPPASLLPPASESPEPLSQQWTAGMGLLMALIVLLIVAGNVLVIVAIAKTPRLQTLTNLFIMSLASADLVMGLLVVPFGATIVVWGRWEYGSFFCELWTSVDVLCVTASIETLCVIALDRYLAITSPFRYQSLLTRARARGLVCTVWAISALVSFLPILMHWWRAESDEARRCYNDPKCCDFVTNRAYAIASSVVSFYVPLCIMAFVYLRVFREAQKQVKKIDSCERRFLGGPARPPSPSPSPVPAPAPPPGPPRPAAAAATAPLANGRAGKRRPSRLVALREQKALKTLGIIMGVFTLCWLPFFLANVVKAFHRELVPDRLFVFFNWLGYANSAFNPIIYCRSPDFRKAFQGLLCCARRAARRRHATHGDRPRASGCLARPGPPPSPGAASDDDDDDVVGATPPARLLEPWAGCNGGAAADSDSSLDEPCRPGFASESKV
From the text: as §1

GR = target: T3, GR (Homo sapiens, UniProt P04150); experiment: SAFETYScan NHR Protein Interaction, Antagonist; type: cell-based
T3 sequence (P04150 1-777): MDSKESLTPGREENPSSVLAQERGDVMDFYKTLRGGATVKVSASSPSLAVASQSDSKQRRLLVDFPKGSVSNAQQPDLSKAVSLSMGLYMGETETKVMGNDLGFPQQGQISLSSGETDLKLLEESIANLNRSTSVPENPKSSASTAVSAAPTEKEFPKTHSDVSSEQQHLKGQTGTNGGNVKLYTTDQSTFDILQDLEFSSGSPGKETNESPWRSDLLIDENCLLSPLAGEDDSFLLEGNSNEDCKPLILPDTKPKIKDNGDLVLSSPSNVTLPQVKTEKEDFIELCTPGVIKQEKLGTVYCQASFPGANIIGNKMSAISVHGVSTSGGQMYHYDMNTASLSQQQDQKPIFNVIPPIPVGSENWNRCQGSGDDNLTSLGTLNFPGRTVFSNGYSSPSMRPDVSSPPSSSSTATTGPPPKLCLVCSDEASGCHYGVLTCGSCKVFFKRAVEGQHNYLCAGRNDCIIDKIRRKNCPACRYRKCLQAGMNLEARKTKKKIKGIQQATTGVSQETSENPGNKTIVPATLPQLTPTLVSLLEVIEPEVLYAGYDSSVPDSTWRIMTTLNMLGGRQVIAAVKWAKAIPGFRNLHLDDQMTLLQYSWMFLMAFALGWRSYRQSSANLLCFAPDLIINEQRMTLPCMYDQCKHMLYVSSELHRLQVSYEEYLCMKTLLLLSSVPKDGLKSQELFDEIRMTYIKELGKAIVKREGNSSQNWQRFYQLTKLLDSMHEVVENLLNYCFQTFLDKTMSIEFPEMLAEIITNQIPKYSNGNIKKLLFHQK
From the text: as §1

OCI-Ly3 = experiment: Cell proliferation assay (14 days), OCI-Ly3
Description: Cells were seeded in 96-well culture plates at a density of 2500 cells/well in RPMI-1640 medium (Sigma-
Aldrich) supplemented with 10% FBS (Gibco). Compounds were initially dispensed into 96-well U-bottom
plates using an Echo 550 acoustic dispenser (Labcyte Inc.), then diluted in RPMI-1640 medium and
transferred onto the cells. Cells were treated with 8 compound concentrations in duplicate, ranging from
with compound for 14 days, with medium changes at days 3, 7 and 10 carried out as follows: fresh 96-well
cell culture plates were prepared containing 100 µl medium plus compound at the assay concentrations
(white plates were used on day 10 to optimise luminescence measurement). Assay plates containing cells
were vortexed to mix and cell density in one control well was counted using a Coulter Z2 cell counter
(Beckman Coulter). The volume of medium containing 2500 cells in the control well was calculated and this volume of cells was transferred from every well of the assay plates to the corresponding well of the fresh plates containing compound. After 14 days, CellTiter Glo reagent (Promega) was added to the medium in each well of the assay plate at a ratio of 1:2, mixed on a plate shaker, then incubated at room temperature for 10 minutes. Luminescence was measured using an Envision plate reader (Perkin Elmer) and the relative luminescence at each compound concentration, compared to DMSO alone, was calculated. GI50 were determined using a 4-parameter curve fit in Dotmatics (Bishops Stortford, UK).

CHRM3 = CHRM3 (Homo sapiens, UniProt P20309); experiment: SAFETYScan GPCR Calcium Flux, Agonist; type: cell-based
CHRM3, sequence (P20309 whole entry): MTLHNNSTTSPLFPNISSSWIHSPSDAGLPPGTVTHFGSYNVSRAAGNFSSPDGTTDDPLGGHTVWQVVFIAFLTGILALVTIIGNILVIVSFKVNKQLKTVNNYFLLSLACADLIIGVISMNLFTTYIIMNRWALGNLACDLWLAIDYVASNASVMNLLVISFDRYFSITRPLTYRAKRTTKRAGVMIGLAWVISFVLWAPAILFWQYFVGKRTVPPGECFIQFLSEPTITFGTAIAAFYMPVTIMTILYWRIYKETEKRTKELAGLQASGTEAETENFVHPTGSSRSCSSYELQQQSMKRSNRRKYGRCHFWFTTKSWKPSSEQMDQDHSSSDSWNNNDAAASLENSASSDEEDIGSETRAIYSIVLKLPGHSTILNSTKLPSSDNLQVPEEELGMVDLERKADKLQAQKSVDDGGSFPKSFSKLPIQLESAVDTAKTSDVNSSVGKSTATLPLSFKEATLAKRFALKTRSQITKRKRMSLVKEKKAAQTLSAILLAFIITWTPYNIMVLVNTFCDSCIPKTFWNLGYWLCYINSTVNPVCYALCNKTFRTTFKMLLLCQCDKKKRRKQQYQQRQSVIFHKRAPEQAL
From the text: as §1

CCKAR = target: T4, CCKAR (Homo sapiens, UniProt P32238); experiment: SAFETYScan GPCR Calcium Flux, Agonist; type: cell-based
T4 sequence (P32238 1-428): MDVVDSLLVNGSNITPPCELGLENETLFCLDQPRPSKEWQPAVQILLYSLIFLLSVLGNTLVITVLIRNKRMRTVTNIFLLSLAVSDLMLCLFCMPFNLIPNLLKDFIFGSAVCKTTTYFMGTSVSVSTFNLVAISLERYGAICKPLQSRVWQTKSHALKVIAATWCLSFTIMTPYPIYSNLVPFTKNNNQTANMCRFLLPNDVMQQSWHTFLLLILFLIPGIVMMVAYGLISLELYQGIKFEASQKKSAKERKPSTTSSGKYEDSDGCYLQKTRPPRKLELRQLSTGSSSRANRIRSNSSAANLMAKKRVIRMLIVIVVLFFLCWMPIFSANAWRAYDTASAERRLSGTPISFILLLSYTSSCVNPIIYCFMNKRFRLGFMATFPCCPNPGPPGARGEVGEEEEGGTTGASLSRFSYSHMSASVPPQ
From the text: as §1

ADRA1A = target: T5, ADRA1A (Homo sapiens, UniProt P35348); experiment: SAFETYScan GPCR Calcium Flux, Agonist; type: cell-based
T5 sequence (P35348 1-466): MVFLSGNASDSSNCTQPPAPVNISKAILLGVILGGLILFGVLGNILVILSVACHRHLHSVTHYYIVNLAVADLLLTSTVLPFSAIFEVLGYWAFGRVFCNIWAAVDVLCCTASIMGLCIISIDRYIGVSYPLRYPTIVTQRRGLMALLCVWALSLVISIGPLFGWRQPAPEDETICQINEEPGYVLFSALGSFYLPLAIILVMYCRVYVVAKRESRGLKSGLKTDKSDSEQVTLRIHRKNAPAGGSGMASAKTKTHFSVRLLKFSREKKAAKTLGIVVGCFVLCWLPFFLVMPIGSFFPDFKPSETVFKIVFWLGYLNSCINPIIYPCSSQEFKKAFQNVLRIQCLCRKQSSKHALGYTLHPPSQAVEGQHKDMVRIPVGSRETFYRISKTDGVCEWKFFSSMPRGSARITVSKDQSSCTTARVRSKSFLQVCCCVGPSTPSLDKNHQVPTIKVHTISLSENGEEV
From the text: as §1

EDNRA = target: T6, EDNRA (Homo sapiens, UniProt P25101); experiment: SAFETYScan GPCR Calcium Flux, Agonist; type: cell-based
T6 sequence (P25101 21-427): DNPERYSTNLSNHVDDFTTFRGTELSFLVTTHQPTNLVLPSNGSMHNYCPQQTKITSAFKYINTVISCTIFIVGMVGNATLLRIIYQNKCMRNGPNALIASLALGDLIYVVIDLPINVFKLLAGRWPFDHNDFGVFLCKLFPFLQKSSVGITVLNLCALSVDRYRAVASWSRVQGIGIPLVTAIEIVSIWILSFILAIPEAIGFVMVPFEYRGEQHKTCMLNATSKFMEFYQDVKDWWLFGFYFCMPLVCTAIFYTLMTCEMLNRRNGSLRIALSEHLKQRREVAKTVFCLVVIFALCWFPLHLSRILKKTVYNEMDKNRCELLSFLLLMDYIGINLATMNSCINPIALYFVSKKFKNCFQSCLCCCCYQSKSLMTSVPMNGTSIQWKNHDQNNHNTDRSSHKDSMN
From the text: as §1

C[C@H]1C[C@@H](O)CN(c2ncc(Cl)c(Nc3ccc4c(c3)c3c(c(=O)n4C)OCC(F)(F)[C@H](C4CC4)N3)n2)C1 [12a CCT373566, (S)-10-((5-Chloro-2-((3R,5S)-3-hydroxy-5-methylpiperidin-1-yl)pyrimidin-4-yl)amino)-2-cyclopropyl-3,3-difluoro-7-methyl-1,2,3,4-tetrahydro-[1,4]oxazepino[2,3-c]quinolin-6(7H)-one]
Emax (ADRA2A; read-out: Max Response): 0%
IC50 (ADRA2A; read-out: RC50 (IC50)): > 10 µM
Emax (ADRB1; read-out: Max Response): 57.3%
IC50 (ADRB1; read-out: RC50 (IC50)): > 10 µM
Emax (GR; read-out: Max Response): 2.11%
IC50 (GR; read-out: RC50 (IC50)): > 10 µM
OCI-Ly3 GI50 (OCI-Ly3; 14-day proliferation assay, BCL6 low-expressing cell line): not seen
GI50 (OCI-Ly3; Homo sapiens, OCI-Ly3, 336 h, read-out: OCI-Ly3 GI50): 1.9 µM
Emax (CHRM3; read-out: Max Response): 3.17%
EC50 (CHRM3; read-out: RC50 (EC50)): > 10 µM
Emax (CCKAR; read-out: Max Response): 2.17%
EC50 (CCKAR; read-out: RC50 (EC50)): > 10 µM
Emax (ADRA1A; read-out: Max Response): 5.05%
EC50 (ADRA1A; read-out: RC50 (EC50)): > 10 µM
Emax (EDNRA; read-out: Max Response): 0.25%
EC50 (EDNRA; read-out: RC50 (EC50)): > 10 µM

Source: PMC9234961 (Journal of Medicinal Chemistry, 2022)
